Results taken from US20070014757A1, “Compositions and complexes containing a macromolecular compound as potential anti-inflammatory agents” (COUNCIL OF SCIENTIFIC AND INDUSTRIAL RESEARCH, priority 2002, published 2007).
Like-named read-outs stand apart in the source and are kept apart here. Blank lines part the entries; values can stand above or below the compound they belong to.

What was measured:
[1] = system: cotton pellet granuloma in rats; assay: Cotton pellet test in rats (sub-acute model); format: in vivo; conditions: granuloma dry weight vs control, dosed once a day, day 1 to 7; I 1.4 mg/kg, D 12 mg/kg, DI 1.4 mg/kg I + 12 mg/kg D
Method: Cotton pellet test in rats: Four autoclaved pellets of cotton weighing 10 mg±0.5 mg were implanted on the previously shaved groin and axilla (two cotton pellet in each) region of rats aseptically. The test formulations (D,I and DI) were fed once a day from 1 to 7 of the experiment. On the day 8 th, the rats were etherized by an overdose of ether and the pellets surrounded by granuloma tissue wre dissected out carefully and dried in a hot oven at 60° C. till a constant weight was obtained. Ulcers were not found in any of the case. After dissection various organs were removed, washed, dried and weighed and histopathology was carried out. No abnormalities were found after conducting the histopathology of liver, lung, kidney and spleen.
The subcutaneous implantation of cotton pellets provides inflammatory exudates that are easily processed. Implantation of cotton pellet triggers the series of cascade inflammatory reaction, leads to the migration of mediators of the inflammation in the zone of implantation.

[2] = Phase solubility study of indomethacin in aqueous dendrimer solutions; format: physicochemical; conditions: indomethacin with PAMAM (fourth generation), 25° C.
Method: Solubility studies were carried out as described by Higuchi and Connors with minor modifications.
Solubility phase diagram depicts the AN type of curve (FIG. 2), which represent a decreasing dependence on the ligand added at higher concentration. This type is comparatively least frequently encountered system, and its occurrence may be explained on the basis of self-association of the ligand at high concentration, which is in contrast to the curve reported by Emanuele et al, for dendrimer using ibuprofen. The negative slope in the curve may be due to the aggregation of dendrimer with the increasing concentration.

[3] = Comparative behavior of dendrimer and indomethacin at different pH (solubility); format: physicochemical
Method: To study the comparative behavior of dendrimer and indometacin at different pH two possibilities were tried. […] The pH of the aqueous solutions of dendrimer was adjusted using 0.1 N HCl and 1M NaOH. […] To the aqueous solutions of various pH (pH-2, 4 7, 8 and 10), dendrimer was added at different percentage. (0.075, 0.15, 0.2). pH was measured in each case. […] The amines of dendrimer will show maximum ionization at acidic pH and minimum ionization at basic pH. […] (initial pH).

[4] = Hematological parameters in arthritic rats (blood cell counter)
Method: (§1) Hematological parameters were determined by blood cell counter (Medonic CA 620).

[5] = system: Adjuvant-induced arthritis in rats; assay: Adjuvant-induced arthritis in rats (chronic model); format: in vivo; conditions: foot swelling, daily dosing I 1 mg/kg, D 9 mg/kg, DI 1 mg/kg I + 9 mg/kg D
Description: Rats were sacrificed. After dissection various organs were removed, washed, dried and weighed. Ulcers were not observed in any of the cases.
The body weight and feed intake of rats were monitored regularly. Weight gain has also been used as a parameter for assessing drug effectiveness.

[6] = rat, in vivo
Method: as §1

type of phase solubility profile [2]: AN type of solubility profile
solubility of indomethacin on addition of dendrimer (in words) ([3]; case-A: filtered saturated solution of indomethacin): found to be decrease
solubility of indomethacin on addition of dendrimer (in words) ([3]; case-B: suspension with un-dissolved drug, dendrimer 0.075%, 0.15%, 0.2%): further increased
Haematocrit [4]: 30.3%
Hemoglobin concentration [4]: 11.6 gm/dl
Large platelets [4]: 8.05%
Mean Platelet Cell Volume [4]: 6.55 um^3
Mean cell hemoglobin [4]: 19.9 pg
Mean cell hemoglobin concentration [4]: 38.2 g/dL
Mean cell volume for red blood cell [4]: 52 um^3
Packed platelet volume [4]: 0.51%
Platelet distribution width [4]: 8.63 um^3
Platelets [4]: 778 10^3\mm^3
Red blood cell [4]: 5.87 10^6/mm^3
Red cell distribution width [4]: 18.9%
Red cell distribution width absolute [4]: 44.1 um^3
White blood cells [4]: 8.85 10^3/mm^3
Compound: COc1ccc2c(c1)c(CC(=O)O)c(C)n2C(=O)c1ccc(Cl)cc1 [I, Indomethacin]
Mean Percentage Inhibition ± SE [1]: 22 ± 1.2%
Mean Percentage Inhibition ± SE ([5]; +1 day): 17 ± 0.9%
Mean Percentage Inhibition ± SE ([5]; +3 day): 18 ± 0.7%
Mean Percentage Inhibition ± SE ([5]; +5 day): 9 ± 0.6%
Mean Percentage Inhibition ± SE ([5]; +7 day): 9 ± 0.8%
Mean Percentage Inhibition ± SE ([5]; +10 day): 8 ± 0.6%
Mean Percentage Inhibition ± SE ([5]; +12 day): 10 ± 0.9%
Mean Percentage Inhibition ± SE ([5]; +14 day): 11 ± 0.9%

Haematocrit [6]: 37.3%
Hemoglobin concentration [6]: 11.3 gm/dl
Large platelets [6]: 7.75%
Mean Platelet Cell Volume [6]: 6.5 um^3
Mean cell hemoglobin [6]: 18.9 pg
Mean cell hemoglobin concentration [6]: 38 g/dL
Mean cell volume for red blood cell [6]: 49.7 um^3
Packed platelet volume [6]: 0.45%
Platelet distribution width [6]: 8.6 um^3
Platelets [6]: 700 10^3\mm^3
Red blood cell [6]: 6 10^6/mm^3
Red cell distribution width [6]: 14.9%
Red cell distribution width absolute [6]: 36.3 um^3
White blood cells [6]: 8.78 10^3/mm^3
Compound: NH2 terminated PAMAM dendrimer (EDA core) generation 4
